PubChem BioAssay AID292 (DTP/NCI, 2004)
“And” between values parts separate entries of the source, which are not always exact repeats. Equal values may be shown once. Toxic doses and inconclusive results are not listed.

Test system: B6C3F1 mice, ip Sarcoma M5076, median survival T/C
Experiment: NCI In Vivo Anticancer Drug Screen. Data for tumor model Sarcoma M5076 (intraperitoneal) in B6C3F1 mice
Details: endpoint: median survival time, higher = longer survival
Method in brief: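 Transplantable tumour in mice; compound-treated vs vehicle-treated groups. Read-out: survival. Value = treated/control ratio.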

[1] = dose: 50.0 mg/kg/injection, schedule: Q04DX004 (ip), vehicle: Klucel (hydroxypropylcellulose) (HPC)
[2] = dose: 100.0 mg/kg/injection, schedule: Q04DX004 (ip), vehicle: Klucel (hydroxypropylcellulose) (HPC)
[3] = dose: 200.0 mg/kg/injection, schedule: Q04DX004 (ip), vehicle: Klucel (hydroxypropylcellulose) (HPC)
[4] = dose: 50.0 mg/kg/injection, schedule: Q04DX004 (ip), vehicle: suspension in saline
[5] = dose: 100.0 mg/kg/injection, schedule: Q04DX004 (ip), vehicle: suspension in saline
[6] = dose: 50.0 mg/kg/injection, schedule: Q04DX004 (ip), vehicle: saline
[7] = dose: 200.0 mg/kg/injection, schedule: Q04DX004 (ip), vehicle: saline
[8] = dose: 400.0 mg/kg/injection, schedule: Q04DX004 (ip), vehicle: saline
[9] = dose: 25.0 mg/kg/injection, schedule: Q04DX004 (ip), vehicle: saline with Tween-80
[10] = dose: 50.0 mg/kg/injection, schedule: Q04DX004 (ip), vehicle: saline with Tween-80
[11] = dose: 100.0 mg/kg/injection, schedule: Q04DX004 (ip), vehicle: saline with Tween-80
[12] = dose: 200.0 mg/kg/injection, schedule: Q04DX004 (ip), vehicle: saline with Tween-80
[13] = dose: 400.0 mg/kg/injection, schedule: Q04DX004 (ip), vehicle: saline with Tween-80
[14] = dose: 400.0 mg/kg/injection, schedule: Q04DX004 (ip), vehicle: Klucel (hydroxypropylcellulose) (HPC)
[15] = dose: 800.0 mg/kg/injection, schedule: Q04DX004 (ip), vehicle: Klucel (hydroxypropylcellulose) (HPC)
[16] = dose: 200.0 mg/kg/injection, schedule: Q04DX004 (ip), vehicle: suspension in saline

c1ccc2c(c1)oc1cc3c(cc12)nnc1cccn13
T/C (dose: 22.5 mg/kg/injection, schedule: Q04DX004 (ip), vehicle: Klucel (hydroxypropylcellulose) (HPC)): 92 % of control | T/C (dose: 45.0 mg/kg/injection, schedule: Q04DX004 (ip), vehicle: Klucel (hydroxypropylcellulose) (HPC)): 96 % of control | T/C (dose: 90.0 mg/kg/injection, schedule: Q04DX004 (ip), vehicle: Klucel (hydroxypropylcellulose) (HPC)): 94 % of control | T/C (dose: 180.0 mg/kg/injection, schedule: Q04DX004 (ip), vehicle: Klucel (hydroxypropylcellulose) (HPC)): 88 % of control | T/C (dose: 360.0 mg/kg/injection, schedule: Q04DX004 (ip), vehicle: Klucel (hydroxypropylcellulose) (HPC)): 92 % of control

COC(=O)NC1C(C)OC(OC2C/C=C(/C)C3C=CC4C(OC5CC(OC6CC(OC7CC(O)C(O)C(C)O7)C(OC7CC(O)C(OC)C(C)O7)C(C)O6)C(O)C(C)O5)C(C)CC(C)C4C3(C)/C(O)=C3\C(=O)OC4(CC(C)C(CO)=CC4/C=C\2C)C3=O)CC1(C)[N+](=O)[O-] (centres undefined)
T/C (dose: 12.5 mg/kg/injection, schedule: Q04DX004 (ip), vehicle: water): 97 % of control | T/C (dose: 25.0 mg/kg/injection, schedule: Q04DX004 (ip), vehicle: water): 100 % of control | T/C (dose: 50.0 mg/kg/injection, schedule: Q04DX004 (ip), vehicle: water): 94 % of control | T/C (dose: 100.0 mg/kg/injection, schedule: Q04DX004 (ip), vehicle: water): 104 % of control | T/C (dose: 200.0 mg/kg/injection, schedule: Q04DX004 (ip), vehicle: water): 111 % of control

CCCCCCCCCCCCN1C(C)=CS/C1=C\C=C\c1scc(C)[n+]1CCCCCCCCCCCC
T/C (dose: 0.75 mg/kg/injection, schedule: Q04DX004 (ip), vehicle: saline with Tween-80): 119 % of control | T/C (dose: 1.5 mg/kg/injection, schedule: Q04DX004 (ip), vehicle: saline with Tween-80): 116 % of control

N=C(N)c1ccc(N=Nc2c(O)ccc3cc(O)ccc23)cc1
T/C (dose: 12.5 mg/kg/injection, schedule: Q04DX004 (ip), vehicle: Klucel (hydroxypropylcellulose) (HPC)): 98 % of control and 103 % of control | T/C (dose: 25.0 mg/kg/injection, schedule: Q04DX004 (ip), vehicle: Klucel (hydroxypropylcellulose) (HPC)): 95 % of control and 99 % of control | T/C [1]: 96 % of control and 103 % of control | T/C [2]: 100 % of control and 103 % of control | T/C [3]: 97 % of control and 98 % of control

O=C(O)Cc1cccc2c(=O)cc(-c3ccccc3)oc12
T/C (dose: 6.25 mg/kg/injection, schedule: Q04DX004 (ip), vehicle: suspension in saline): 98 % of control | T/C (dose: 12.5 mg/kg/injection, schedule: Q04DX004 (ip), vehicle: suspension in saline): 95 % of control | T/C (dose: 25.0 mg/kg/injection, schedule: Q04DX004 (ip), vehicle: suspension in saline): 102 % of control | T/C [4]: 100 % of control | T/C [5]: 102 % of control

c1cc2c(c(CC3CO3)c1CC1CO1)OCCOCCOCCOCCO2 (centres undefined)
T/C (dose: 25.0 mg/kg/injection, schedule: Q04DX004 (ip), vehicle: saline + alcohol): 107 % of control | T/C (dose: 50.0 mg/kg/injection, schedule: Q04DX004 (ip), vehicle: saline + alcohol): 108 % of control | T/C (dose: 100.0 mg/kg/injection, schedule: Q04DX004 (ip), vehicle: saline + alcohol): 111 % of control | T/C (dose: 200.0 mg/kg/injection, schedule: Q04DX004 (ip), vehicle: saline + alcohol): 120 % of control

CCc1nc(N)nc(N)c1-c1ccc(Cl)c(N=[N+]=[N-])c1
T/C (dose: 8.37 mg/kg/injection, schedule: Q04DX004 (ip), vehicle: water): 107 % of control | T/C (dose: 16.75 mg/kg/injection, schedule: Q04DX004 (ip), vehicle: water): 108 % of control | T/C (dose: 33.5 mg/kg/injection, schedule: Q04DX004 (ip), vehicle: distilled water + Tween-80): 102 % of control | T/C (dose: 33.5 mg/kg/injection, schedule: Q04DX004 (ip), vehicle: water): 119 % of control | T/C (dose: 67.0 mg/kg/injection, schedule: Q04DX004 (ip), vehicle: distilled water + Tween-80): 109 % of control | T/C (dose: 134.0 mg/kg/injection, schedule: Q04DX004 (ip), vehicle: distilled water + Tween-80): 102 % of control | T/C (dose: 536.0 mg/kg/injection, schedule: Q04DX004 (ip), vehicle: distilled water + Tween-80): 174 % of control

NCCNCC(O)CO (centres undefined)
T/C [6]: 99 % of control | T/C (dose: 100.0 mg/kg/injection, schedule: Q04DX004 (ip), vehicle: saline): 103 % of control | T/C [7]: 103 % of control | T/C [8]: 99 % of control | T/C (dose: 800.0 mg/kg/injection, schedule: Q04DX004 (ip), vehicle: saline): 95 % of control

Cc1c(/C=C/C(=O)O)no[n+]1[O-]
T/C [9]: 100 % of control | T/C [10]: 101 % of control | T/C [11]: 101 % of control | T/C [12]: 101 % of control | T/C [13]: 93 % of control

[NH-]C(CCC(N)=O)C(=O)O.[NH-]C(CCC(N)=O)C(=O)O.[Zn+2] (centres undefined)
T/C (dose: 12.5 mg/kg/injection, schedule: Q04DX004 (ip), vehicle: saline with Tween-80): 103 % of control | T/C [9]: 98 % of control | T/C [10]: 96 % of control

COc1ccc(NC(=O)/N=C2\CN(C(=O)c3c(F)cccc3F)C(=O)N2c2ccc(OC)cc2)cc1
T/C (dose: 3.0 mg/kg/injection, schedule: Q04DX004 (ip), vehicle: saline with Tween-80): 95 % of control | T/C (dose: 6.0 mg/kg/injection, schedule: Q04DX004 (ip), vehicle: saline with Tween-80): 100 % of control | T/C (dose: 12.0 mg/kg/injection, schedule: Q04DX004 (ip), vehicle: saline with Tween-80): 102 % of control | T/C (dose: 24.0 mg/kg/injection, schedule: Q04DX004 (ip), vehicle: saline with Tween-80): 95 % of control | T/C (dose: 48.0 mg/kg/injection, schedule: Q04DX004 (ip), vehicle: saline with Tween-80): 95 % of control

CC(CNC(=O)C12CC3CC(CC(C3)C1)C2)NC(=O)C12CC3CC(CC(C3)C1)C2 (centres undefined)
T/C (dose: 25.0 mg/kg/injection, schedule: Q04DX004 (ip), vehicle: other): 94 % of control | T/C (dose: 50.0 mg/kg/injection, schedule: Q04DX004 (ip), vehicle: other): 98 % of control | T/C (dose: 100.0 mg/kg/injection, schedule: Q04DX004 (ip), vehicle: other): 90 % of control | T/C (dose: 200.0 mg/kg/injection, schedule: Q04DX004 (ip), vehicle: other): 98 % of control

COc1ccc(CCN2C(=O)C(=O)N(c3cccc4c(N5C(=O)C(=O)N(CCc6ccc(OC)c(OC)c6)C5=O)cccc34)C2=O)cc1OC
T/C (dose: 18.75 mg/kg/injection, schedule: Q04DX004 (ip), vehicle: Klucel (hydroxypropylcellulose) (HPC)): 94 % of control | T/C (dose: 37.5 mg/kg/injection, schedule: Q04DX004 (ip), vehicle: Klucel (hydroxypropylcellulose) (HPC)): 99 % of control | T/C (dose: 75.0 mg/kg/injection, schedule: Q04DX004 (ip), vehicle: Klucel (hydroxypropylcellulose) (HPC)): 99 % of control | T/C (dose: 150.0 mg/kg/injection, schedule: Q04DX004 (ip), vehicle: Klucel (hydroxypropylcellulose) (HPC)): 105 % of control

COC(=O)C1(F)C(=O)NC(=O)NC1OC (centres undefined)
T/C [1]: 100 % of control and 102 % of control | T/C [2]: 106 % of control and 116 % of control | T/C [3]: 104 % of control and 113 % of control | T/C [14]: 109 % of control and 113 % of control | T/C [15]: 102 % of control and 116 % of control

CC1=NN(c2ccccc2)C(=O)C1=Nc1c(C)[nH]n(-c2ccccc2)c1=O
T/C [10]: 89 % of control | T/C [11]: 92 % of control | T/C [12]: 97 % of control | T/C [13]: 94 % of control

C1OC1CO[C@@H]1CO[C@H]2[C@@H]1OC[C@H]2OCC1CO1 (some centres undefined)
T/C [6]: 119 % of control | T/C [4]: 119 % of control | T/C [5]: 150 % of control | T/C [7]: 186 % of control | T/C [16]: 215 % of control | T/C [8]: 183 % of control | T/C (dose: 400.0 mg/kg/injection, schedule: Q04DX004 (ip), vehicle: suspension in saline): 239 % of control

O=P1(N(CCCl)CCCl)NCCCO1 (centres undefined)
T/C (dose: 80.0 mg/kg/injection, schedule: Q04DX003 (ip), vehicle: saline): 201 % of control | T/C (dose: 160.0 mg/kg/injection, schedule: Q04DX003 (ip), vehicle: saline): 261 % of control

CC(C)(C)c1cc(C2C(C#N)C(=O)NC(=O)C2C#N)cc(C(C)(C)C)c1O (centres undefined)
T/C [1]: 88 % of control | T/C [2]: 97 % of control | T/C [3]: 93 % of control | T/C [14]: 95 % of control | T/C [15]: 97 % of control

Nc1nc2n[nH]nc2c(=O)[nH]1
T/C [4]: 118 % of control | T/C [16]: 123 % of control
